Literature values in patent EP0276807A2, “Lipid regulating compositions” (WARNER-LAMBERT COMPANY, priority 1987, dated 1988).

Target: T1, HMG-CoA reductase (Homo sapiens, UniProt P04035)
T1 sequence (P04035 1-888): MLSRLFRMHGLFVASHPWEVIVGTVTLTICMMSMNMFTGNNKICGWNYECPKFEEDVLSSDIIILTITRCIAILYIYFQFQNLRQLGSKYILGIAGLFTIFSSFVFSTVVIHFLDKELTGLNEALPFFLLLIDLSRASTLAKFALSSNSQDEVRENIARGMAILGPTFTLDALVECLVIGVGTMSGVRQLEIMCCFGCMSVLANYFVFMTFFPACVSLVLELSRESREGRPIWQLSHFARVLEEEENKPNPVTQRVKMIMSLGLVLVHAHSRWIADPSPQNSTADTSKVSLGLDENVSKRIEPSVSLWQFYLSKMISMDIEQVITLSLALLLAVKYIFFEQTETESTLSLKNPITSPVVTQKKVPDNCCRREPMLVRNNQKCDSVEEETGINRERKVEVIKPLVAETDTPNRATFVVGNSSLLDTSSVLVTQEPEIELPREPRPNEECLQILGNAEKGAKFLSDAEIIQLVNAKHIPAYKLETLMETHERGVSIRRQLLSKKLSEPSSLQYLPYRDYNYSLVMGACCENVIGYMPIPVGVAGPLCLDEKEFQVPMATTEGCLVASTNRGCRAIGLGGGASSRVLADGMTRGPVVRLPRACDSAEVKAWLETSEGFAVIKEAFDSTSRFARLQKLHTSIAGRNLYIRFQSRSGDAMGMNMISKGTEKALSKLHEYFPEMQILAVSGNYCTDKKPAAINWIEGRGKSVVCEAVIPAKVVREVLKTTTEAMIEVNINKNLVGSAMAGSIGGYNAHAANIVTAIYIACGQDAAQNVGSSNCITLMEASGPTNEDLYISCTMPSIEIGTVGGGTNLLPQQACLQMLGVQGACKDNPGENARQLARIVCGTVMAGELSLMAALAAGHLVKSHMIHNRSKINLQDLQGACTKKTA
Details: read-out: IC₅₀ value for inhibition of HMG-CoA reductase

Compound: CCC(C)C(=O)OC1CC(C)C=C2C=CC(C)C(CCC(O)CC(O)CC(=O)O)C21 (stereo not drawn) [Mevinolinic acid, [1S-[1α(βS*,δS*),2α,6β,8β(R*)8aα]]-1,2,6,7,8,8a-hexahydro-β,δ-dihydroxy-2,6-dimethyl-8-(2-methyl-1-oxobutoxy)-1-naphthaleneheptanoic acid]
- IC50: ~5.6 nM
